Results from ChEMBL document CHEMBL4028808, “Design and synthesis of selective CDK8/19 dual inhibitors: Discovery of 4,5-dihydrothieno[3',4':3,4]benzo[1,2-d]isothiazole derivatives” (Bioorg Med Chem, 2017).
Activity calls are given as the source filed them. No cut-off for these calls is given here.

How the values were obtained:
[1] = Volume of distribution at steady state in ICR mouse plasma at 0.1 mg/kg, iv administered as cassette dose by LC-MS/MS analysis; assay type: ADME, organism-based; conditions: read-out: Vdss
[2] = biological target: Vascular endothelial growth factor receptor 2 (Homo sapiens) (UniProt P35968); assay: Inhibition of VEGFR2 (unknown origin) at <1 uM using biotinylated poly[Glu:Tyr] (4:1) as substrate pretreated for 5 mins followed by substrate addition measured after 10 mins by Alphascreen assay
Sequence of Vascular endothelial growth factor receptor 2 (Homo sapiens) (P35968 whole entry): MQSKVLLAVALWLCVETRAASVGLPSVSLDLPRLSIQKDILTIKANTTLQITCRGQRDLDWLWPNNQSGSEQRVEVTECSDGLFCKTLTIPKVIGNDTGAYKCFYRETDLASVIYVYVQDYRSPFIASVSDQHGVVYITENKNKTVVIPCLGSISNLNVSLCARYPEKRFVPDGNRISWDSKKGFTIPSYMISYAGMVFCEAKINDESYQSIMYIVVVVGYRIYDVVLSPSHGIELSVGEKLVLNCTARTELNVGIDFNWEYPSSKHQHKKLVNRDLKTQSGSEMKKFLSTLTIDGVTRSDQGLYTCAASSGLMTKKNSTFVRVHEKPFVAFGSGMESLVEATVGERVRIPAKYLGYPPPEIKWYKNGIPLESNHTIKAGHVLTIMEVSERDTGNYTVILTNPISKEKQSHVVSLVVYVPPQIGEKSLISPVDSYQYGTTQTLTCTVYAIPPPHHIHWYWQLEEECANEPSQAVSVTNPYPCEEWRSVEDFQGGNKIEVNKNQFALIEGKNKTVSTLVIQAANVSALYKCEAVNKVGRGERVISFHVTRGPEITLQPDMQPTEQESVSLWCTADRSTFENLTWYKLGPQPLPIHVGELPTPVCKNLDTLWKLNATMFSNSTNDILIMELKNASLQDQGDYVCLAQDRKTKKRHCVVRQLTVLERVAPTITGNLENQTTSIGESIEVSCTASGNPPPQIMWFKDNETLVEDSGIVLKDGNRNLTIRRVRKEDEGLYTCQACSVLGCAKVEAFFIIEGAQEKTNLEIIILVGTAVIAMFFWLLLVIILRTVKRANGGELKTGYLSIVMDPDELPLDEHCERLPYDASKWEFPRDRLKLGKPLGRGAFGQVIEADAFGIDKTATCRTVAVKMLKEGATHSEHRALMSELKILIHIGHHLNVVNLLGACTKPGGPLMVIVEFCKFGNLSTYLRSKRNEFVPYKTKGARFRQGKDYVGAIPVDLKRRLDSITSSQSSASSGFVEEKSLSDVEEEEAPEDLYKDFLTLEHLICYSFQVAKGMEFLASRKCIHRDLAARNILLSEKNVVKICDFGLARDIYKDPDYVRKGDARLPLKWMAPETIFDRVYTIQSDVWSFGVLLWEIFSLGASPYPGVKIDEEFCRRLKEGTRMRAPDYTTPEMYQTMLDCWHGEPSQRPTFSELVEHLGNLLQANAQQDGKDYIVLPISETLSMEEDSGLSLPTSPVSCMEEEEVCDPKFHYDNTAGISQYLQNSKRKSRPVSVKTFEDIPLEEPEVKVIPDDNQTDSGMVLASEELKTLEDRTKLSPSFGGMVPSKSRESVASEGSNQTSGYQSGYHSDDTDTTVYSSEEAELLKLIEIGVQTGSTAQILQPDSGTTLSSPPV

[3] = biological target: CDK8/Cyclin C (Homo sapiens, UniProt P49336); assay: Inhibition of kinase tracer-236 binding to GST-tagged CDK8/CyclinC (unknown origin) after 60 mins by TR-FRET assay; assay type: protein-complex assay
Sequence of CDK8/Cyclin C (P49336 whole entry): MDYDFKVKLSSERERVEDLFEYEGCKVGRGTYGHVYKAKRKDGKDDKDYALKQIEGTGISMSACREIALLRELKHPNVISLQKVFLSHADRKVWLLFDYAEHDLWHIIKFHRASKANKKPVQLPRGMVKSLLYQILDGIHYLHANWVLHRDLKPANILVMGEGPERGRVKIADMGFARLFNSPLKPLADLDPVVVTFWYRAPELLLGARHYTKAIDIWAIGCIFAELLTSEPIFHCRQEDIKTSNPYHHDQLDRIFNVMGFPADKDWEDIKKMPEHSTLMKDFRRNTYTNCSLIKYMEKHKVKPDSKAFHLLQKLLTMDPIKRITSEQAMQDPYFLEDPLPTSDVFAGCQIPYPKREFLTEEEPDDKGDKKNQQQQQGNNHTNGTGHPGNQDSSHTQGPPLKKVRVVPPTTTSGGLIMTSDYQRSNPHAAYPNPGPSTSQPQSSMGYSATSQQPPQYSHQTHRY
Sequence of CDK8/Cyclin C (P24863 whole entry, further chain): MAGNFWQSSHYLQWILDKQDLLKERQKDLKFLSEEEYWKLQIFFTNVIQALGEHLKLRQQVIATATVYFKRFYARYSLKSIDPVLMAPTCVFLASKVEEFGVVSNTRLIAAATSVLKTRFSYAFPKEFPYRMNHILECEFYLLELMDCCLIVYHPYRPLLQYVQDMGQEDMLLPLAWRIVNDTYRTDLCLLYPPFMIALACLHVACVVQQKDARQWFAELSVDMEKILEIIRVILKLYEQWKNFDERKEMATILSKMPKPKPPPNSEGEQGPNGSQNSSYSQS

[4] = biological target: Protein kinase C theta type (Homo sapiens) (UniProt Q04759); assay: Inhibition of PKCtheta (unknown origin) at 1 uM using MBP as substrate preincubated for 5 mins followed by substrate addition measured after 60 mins in presence of [gamma33P]ATP by scintillation counter method relative to control
[5] = biological target: Cyclin-dependent kinase 8 (Homo sapiens, UniProt P49336); assay: Binding affinity to partial length wild-type human CDK8 (M1 to T360residues) expressed in bacterial expression system by kinome scan assay
Sequence of Cyclin-dependent kinase 8 (P49336 whole entry): as the sequence (P49336 whole entry) above

[6] = biological target: Dual specificity mitogen-activated protein kinase kinase 1 (Homo sapiens) (UniProt Q02750); assay: Inhibition of MEK1 (unknown origin) at <1 uM using GST-ERK1 as substrate preincubated for 5 mins followed by substrate addition measured after 20 mins in presence of [gamma33P]ATP by scintillation counter method
[7] = biological target: Casein kinase I isoform delta (Homo sapiens) (UniProt P48730); assay: Inhibition of CK1delta (unknown origin) at 1 uM using CK1tide as substrate preincubated for 5 mins followed by substrate addition measured after 20 mins in presence of [gamma33P]ATP by scintillation counter method relative to control
[8] = biological target: Serine/threonine-protein kinase PLK1 (Homo sapiens) (UniProt P53350); assay: Inhibition of PLK1 (unknown origin) at 1 uM using alpha-casein as substrate preincubated for 5 mins followed by substrate addition measured after 60 mins in presence of [gamma33P]ATP by scintillation counter method relative to control
[9] = biological target: Homeodomain-interacting protein kinase 1 (Homo sapiens, UniProt Q86Z02); conditions: 300 nM
[10] = tested on: Mus musculus; assay: In vivo inhibition of CDK8-mediated STAT1 phosphorylation in human RPMI8226 cells xenografted in C.B17/Icr scid/scid Jcl mouse at 2.5 mg/kg, po bid administered for 14 days measured 2 to 8 hrs post last dose; assay type: functional, organism-based
[11] = biological target: Ephrin type-A receptor 5 (Homo sapiens) (UniProt P54756); assay: Inhibition of EphA5 (unknown origin) at <1 uM using biotinylated poly[Glu:Tyr] (4:1) as substrate pretreated for 5 mins followed by substrate addition measured after 10 mins by Alphascreen assay
Sequence of Ephrin type-A receptor 5 (Homo sapiens) (P54756 whole entry, the tested form may be a part): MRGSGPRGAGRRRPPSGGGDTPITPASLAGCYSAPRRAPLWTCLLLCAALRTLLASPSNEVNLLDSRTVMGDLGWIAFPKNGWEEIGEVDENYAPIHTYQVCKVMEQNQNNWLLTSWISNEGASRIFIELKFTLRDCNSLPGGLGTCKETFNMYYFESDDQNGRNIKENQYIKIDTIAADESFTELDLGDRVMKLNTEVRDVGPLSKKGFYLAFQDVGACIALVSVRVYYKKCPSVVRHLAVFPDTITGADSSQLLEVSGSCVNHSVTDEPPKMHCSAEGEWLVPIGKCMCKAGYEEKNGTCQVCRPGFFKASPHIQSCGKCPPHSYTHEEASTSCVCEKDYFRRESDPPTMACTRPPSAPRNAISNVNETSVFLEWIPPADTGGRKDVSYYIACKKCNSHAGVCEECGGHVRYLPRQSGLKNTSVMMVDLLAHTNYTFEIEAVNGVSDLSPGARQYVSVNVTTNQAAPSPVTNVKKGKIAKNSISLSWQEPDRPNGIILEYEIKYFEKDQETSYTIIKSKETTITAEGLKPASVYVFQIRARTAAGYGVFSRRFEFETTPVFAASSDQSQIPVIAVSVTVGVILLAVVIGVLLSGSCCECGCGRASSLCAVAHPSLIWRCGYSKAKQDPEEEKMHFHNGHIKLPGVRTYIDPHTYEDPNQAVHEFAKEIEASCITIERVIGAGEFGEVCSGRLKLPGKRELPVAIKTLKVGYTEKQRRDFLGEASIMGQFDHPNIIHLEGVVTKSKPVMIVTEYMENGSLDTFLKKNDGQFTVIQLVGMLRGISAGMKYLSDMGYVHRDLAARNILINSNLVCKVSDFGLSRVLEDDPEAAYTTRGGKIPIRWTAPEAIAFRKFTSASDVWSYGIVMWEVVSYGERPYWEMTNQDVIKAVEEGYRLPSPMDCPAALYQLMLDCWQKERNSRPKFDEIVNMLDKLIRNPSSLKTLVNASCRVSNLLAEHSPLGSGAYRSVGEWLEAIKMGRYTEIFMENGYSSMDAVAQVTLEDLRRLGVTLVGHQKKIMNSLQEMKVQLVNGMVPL

[12] = biological target: Ephrin type-A receptor 3 (Homo sapiens) (UniProt P29320); assay: Binding affinity to partial length wild-type human EPHA3 (D604 to K889 residues) expressed in bacterial expression system assessed as unbound drug level at 300 nM by KINOMEscan assay
[13] = tested on: Mus musculus; assay: Toxicity in C.B17/Icr scid/scid Jcl mouse assessed as body weight loss at 2.5 mg/kg, po qd administered for 14 days measured post last dose; assay type: organism-based; conditions: in vivo, 336 h
[14] = biological target: Mitogen-activated protein kinase kinase kinase 5 (Homo sapiens) (UniProt Q99683); assay: Inhibition of ASK1 (unknown origin) at 1 uM using MBP as substrate preincubated for 5 mins followed by substrate addition measured after 60 mins in presence of [gamma33P]ATP by scintillation counter method relative to control
[15] = AUC (0 to 24 hrs) in ICR mouse plasma at 1 mg/kg, po administered as cassette dose by LC-MS/MS analysis; assay type: ADME, organism-based; parameters: dose 1 mg/kg, time < 24 hr, route oral
[16] = biological target: Hepatocyte growth factor receptor (Homo sapiens) (UniProt P08581); assay: Inhibition of cMET (unknown origin) at <1 uM
Sequence of Hepatocyte growth factor receptor (Homo sapiens) (P08581 whole entry): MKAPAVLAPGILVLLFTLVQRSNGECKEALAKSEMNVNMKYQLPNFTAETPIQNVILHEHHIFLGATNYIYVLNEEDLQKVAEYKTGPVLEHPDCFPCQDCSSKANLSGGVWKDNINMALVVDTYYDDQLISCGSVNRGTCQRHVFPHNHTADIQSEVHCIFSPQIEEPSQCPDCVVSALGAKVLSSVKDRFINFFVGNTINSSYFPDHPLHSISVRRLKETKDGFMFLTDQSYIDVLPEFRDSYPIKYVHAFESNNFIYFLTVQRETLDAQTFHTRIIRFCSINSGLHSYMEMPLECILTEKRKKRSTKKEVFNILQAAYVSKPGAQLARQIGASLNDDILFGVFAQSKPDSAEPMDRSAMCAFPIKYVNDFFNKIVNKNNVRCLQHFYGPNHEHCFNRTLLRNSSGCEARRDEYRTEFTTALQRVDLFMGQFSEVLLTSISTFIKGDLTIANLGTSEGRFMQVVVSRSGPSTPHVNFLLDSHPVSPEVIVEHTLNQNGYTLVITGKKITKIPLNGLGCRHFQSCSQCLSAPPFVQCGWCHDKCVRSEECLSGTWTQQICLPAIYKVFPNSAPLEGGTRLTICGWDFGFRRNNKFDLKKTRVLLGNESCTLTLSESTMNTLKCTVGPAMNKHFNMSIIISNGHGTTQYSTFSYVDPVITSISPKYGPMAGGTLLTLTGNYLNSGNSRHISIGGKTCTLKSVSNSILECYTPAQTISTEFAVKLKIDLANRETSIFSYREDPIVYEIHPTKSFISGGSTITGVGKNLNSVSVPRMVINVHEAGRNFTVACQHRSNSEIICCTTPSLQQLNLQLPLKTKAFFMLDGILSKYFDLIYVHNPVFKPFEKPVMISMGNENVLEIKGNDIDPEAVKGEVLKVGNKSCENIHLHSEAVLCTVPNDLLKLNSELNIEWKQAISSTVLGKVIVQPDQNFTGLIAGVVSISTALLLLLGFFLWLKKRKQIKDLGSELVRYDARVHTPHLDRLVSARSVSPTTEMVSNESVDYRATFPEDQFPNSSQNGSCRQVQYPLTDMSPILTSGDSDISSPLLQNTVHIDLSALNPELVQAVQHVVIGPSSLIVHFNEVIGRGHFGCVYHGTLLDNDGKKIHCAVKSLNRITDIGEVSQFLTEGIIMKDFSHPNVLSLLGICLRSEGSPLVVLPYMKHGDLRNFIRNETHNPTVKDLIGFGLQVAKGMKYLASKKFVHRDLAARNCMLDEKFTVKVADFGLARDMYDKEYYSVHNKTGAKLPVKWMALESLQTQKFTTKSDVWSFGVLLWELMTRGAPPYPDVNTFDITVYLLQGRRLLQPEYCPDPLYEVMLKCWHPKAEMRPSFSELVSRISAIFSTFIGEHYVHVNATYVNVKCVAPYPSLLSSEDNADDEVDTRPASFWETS

[17] = biological target: Cyclin-C/Cyclin-dependent kinase 19 (Homo sapiens) (UniProt Q9BWU1+P24863); conditions: 1 uM
Description: Inhibition of kinase tracer-236 binding to GST-tagged CDK19/CyclinC (unknown origin) at 1 uM after 60 mins by TR-FRET assay relative to control

[18] = tested on: Mus musculus; assay: AUC (0 to 24 hrs) in ICR mouse plasma at 0.1 mg/kg, iv administered as cassette dose by LC-MS/MS analysis; assay type: ADME, organism-based; parameters: dose 0.1 mg/kg, time < 24 hr, route intravenous; conditions: in vivo
[19] = biological target: Mitogen-activated protein kinase kinase kinase 19 (Homo sapiens, UniProt Q56UN5); assay: Binding affinity to partial length wild-type human YSK4 (T1019 to H1328 residues) expressed in bacterial expression system by kinome scan assay
[20] = Half life in ICR mouse plasma at 0.1 mg/kg, iv or 1 mg/kg, po administered as cassette dose by LC-MS/MS analysis; assay type: ADME, organism-based
[21] = tested on: Mus musculus; assay: In vivo inhibition of CDK8-mediated STAT1 phosphorylation in human RPMI8226 cells xenografted in C.B17/Icr scid/scid Jcl mouse at 1.25 mg/kg, po bid administered for 14 days measured 2 to 8 hrs post last dose; assay type: functional, organism-based
[22] = biological target: T1, Cyclin-dependent kinase 9 (Homo sapiens, UniProt P50750); assay: Inhibition of CDK9 (unknown origin) at 1 uM relative to control
T1 sequence (P50750 whole entry): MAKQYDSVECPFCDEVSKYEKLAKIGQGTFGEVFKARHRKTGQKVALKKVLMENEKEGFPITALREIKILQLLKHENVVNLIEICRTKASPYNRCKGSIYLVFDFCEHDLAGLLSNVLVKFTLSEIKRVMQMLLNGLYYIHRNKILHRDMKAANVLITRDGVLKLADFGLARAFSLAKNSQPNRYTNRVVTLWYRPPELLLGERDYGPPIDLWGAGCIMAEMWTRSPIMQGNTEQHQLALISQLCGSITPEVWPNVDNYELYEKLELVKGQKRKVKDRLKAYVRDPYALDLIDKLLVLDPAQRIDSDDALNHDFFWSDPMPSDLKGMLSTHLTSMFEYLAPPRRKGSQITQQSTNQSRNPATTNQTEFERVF

[23] = tested on: SW480; assay: Growth inhibition of human SW480 cells after 196 hrs by CellTiter-Glo luminescence assay relative to control; assay type: functional
[24] = biological target: Cyclin-C/Cyclin-dependent kinase 19 (Homo sapiens, UniProt Q9BWU1); assay: Inhibition of kinase tracer-236 binding to GST-tagged CDK19/CyclinC (unknown origin) after 60 mins by TR-FRET assay; assay type: protein-complex assay
[25] = biological target: Cyclin-dependent kinase 19 (Homo sapiens, UniProt Q9BWU1); assay: Binding affinity to partial length wild-type human CDK19 (M1 to N360 residues) expressed in bacterial expression system by KINOMEscan assay
[26] = biological target: Tyrosine-protein kinase JAK1 (Homo sapiens) (UniProt P23458); assay: Inhibition of JAK1 (unknown origin) at <1 uM using biotinylated poly[Glu:Tyr] (4:1) as substrate pretreated for 5 mins followed by substrate addition measured after 10 mins by Alphascreen assay
[27] = biological target: Mitogen-activated protein kinase kinase kinase 19 (Homo sapiens) (UniProt Q56UN5); assay: Binding affinity to partial length wild-type human YSK4 (T1019 to H1328 residues) expressed in bacterial expression system assessed as unbound drug level at 300 nM by KINOMEscan assay
[28] = biological target: Aurora kinase B (Homo sapiens) (UniProt Q96GD4); assay: Inhibition of Aurora B (unknown origin) at <1 uM using aurora peptide as substrate preincubated for 5 mins followed by substrate addition measured after 60 mins in presence of [gamma33P]ATP by scintillation counter method
[29] = Mean residence time in ICR mouse plasma at 0.1 mg/kg, iv administered as cassette dose by LC-MS/MS analysis; assay type: ADME, organism-based
[30] = biological target: T1, Cyclin-dependent kinase 9; assay: Inhibition of CDK9 (unknown origin)
[31] = species on record: Homo sapiens; assay: Inhibition of PKA (unknown origin) at 1 uM using PKA peptide as substrate preincubated for 5 mins followed by substrate addition measured after 10 mins in presence of [gamma33P]ATP by scintillation counter method relative to control

Q: What does the source list for `COCCNC(=O)c1ccc(Oc2sc(C(N)=O)c3c2-c2sncc2CC3)cn1`?
A: Vd [1]: 2.14 L/kg; inhibition [2]: inactive; IC50 [3]: 0.46 nM; inhibition [4]: 2%; Kd [5]: 46 nM; inhibition [6]: inactive; inhibition [7]: 28%; inhibition [8]: 4%; Fu [9]: 0.32%; inhibition [10]: Active; inhibition [11]: inactive; Fu [12]: 0.43%; Activity [13]: 10.2%; inhibition [14]: 0%; AUC(0-t) at 24 h [15]: 891 ng·h/mL; inhibition [16]: inactive; inhibition [17]: 100%; AUC [18]: 90.4 ng·h/mL; Kd [19]: 97 nM; half-life [20]: 2.1 h; inhibition [21]: Active; inhibition [22]: 83%; growth inhibition (GI) [23]: >50%; IC50 [24]: 0.99 nM; Kd [25]: 25 nM; inhibition [26]: inactive; Fu [27]: 0.41%; inhibition [28]: inactive; MRT [29]: 1.93 h; IC50 [30]: 270 nM; inhibition [31]: 1%
